Measured values: patent US20010014462A1, “Direct cholesterol esterase assay” (priority 1997, published 2001)
Where two headings read alike, the source gives them in different places.

Experiments:
[1] = system: esterase (EC 3.1.1.1); experiment: Microtitre chromogenic detection of esterase, de-ionized H2O (Examples 2 and 3); assay type: biochemical; conditions: for Substrate preference / Speed of chromogenic reactions relative to other BCI substrates: esterase; for Substrate preference: BCI-substrates tested; for Speed of chromogenic reactions relative to other BCI substrates: similar concentration of substrates and enzymes; for Reaction (colour, time to detection): 1 unit esterase, de-ionized H2O
Protocol: 10 μl of esterase (1 unit) was added to substrate samples B, B′, C, C′, D, D′, and E, E′.
Five test samples were prepared.

[2] = system: cholesterol esterase (EC3.1.1.13); experiment: Microtiter chromogenic detection of cholesterol esterase (Example 7); assay type: biochemical; conditions: for Substrate preference: BCI-substrates tested; for Reaction (colour, time to detection): cholesterol esterase (0.05 U)
[3] = system: beta-glucosidase (EC 3.2.1.21); conditions: 0.5 units glucosidase
Protocol: The experimental results for Experiments 1-12 are described by the color change of the experimental solution. These colors result from the interaction of the enzyme and substrate with the transfer of an electron to a tetrazolium salt. The reactive product, formazan, is detected as dark blue, black. […] The reaction detected required the enzyme, substrate and tetrazolium salt.
Five test samples were prepared. The samples A, B, C, D, E contained the following reactants:
10 μl of H2O was added to substrate sample A to serve as a control. 10 μl of β-glucosidase (0.5 units) was added to substrate samples B, C, D and E.

[4] = system: B-glucuronidase (EC 3.2.1.31); conditions: PBS pH 5.0
Protocol: (§3) These colors result from the interaction of the enzyme and substrate with the transfer of an electron to a tetrazolium salt. The reactive product, formazan, is detected as dark blue, black. The BCI substrate without MTT is pale blue. PMS and MTT alone are yellow. PMS and BCI is yellow+blue which is green.
Four test samples were prepared. The samples A, B, C, D contained the following reactants:
10 μl of H2O was added to substrate sample A to serve as a control. 10 μl of β-glucuronidase (10 units) was added to substrate samples B, C, and D.

[5] = system: esterase (EC3.1.1.1); experiment: Microtiter chromogenic detection of esterase, PBS pH 7.4 (Example 1); assay type: biochemical; conditions: 1 unit esterase, visual
Protocol: (§1) The BCI substrate without MTT is pale blue. PMS and MTT alone are yellow. PMS and BCI is yellow+blue which is green.
Four test samples were prepared.

[6] = system: esterase activity in elastase preparation; experiment: Esterase activity and/or contamination in commercial elastase preparation (Example 5); assay type: biochemical
Protocol: (§2) Elastase was serially diluted twofold to signal extinction with elastase substrate. The last dilution yielding robust signal was incubated with the competitive inhibitor elastatinal for 10 minutes—with subsequent addition of esterase substrates.

[7] = system: Beta-N-acetylglucosaminidase (EC 3.2.1.30); experiment: Microtitre chromogenic detection of Beta-N-acetylglucosaminidase (Example 12); assay type: biochemical; conditions: Beta-N-acetylglucoaminidase 0.125 units
Description: as §1

[8] = system: neuraminidase (EC 3.2.1.18); experiment: Microtitre chromogenic detection of neuraminidase (Example 11); assay type: biochemical; conditions: neuraminidase 0.1 units
Protocol: as §3
10 μl of H2O was added to substrate sample A as the substrate control. 10 μl of neuraminidase (0.1 units) was added to substrate samples B, C, D and E.

[9] = biological target: chloramphenicol acetyltransferase (EC 2.3.1.28) (Escherichia coli, UniProt P62577); experiment: Microtitre chromogenic detection of chloramphenicol acetyltransferase (Example 10); assay type: biochemical; conditions: Chloramphenicol acetyl transferase 5U/10 μl
Description: In a preferred assay of the invention, the enzyme chloramphenicol acetyl transferase (CAT enzyme) reacts with chloramphenicol and […] in the presence of the indicator dimethylthiazol tetrazolium (MTT) and phenazine methosulfate (PMS). The MTT serves as a hydrogen acceptor in the reaction. The reaction can be written as:
CAT+chloramphenicol+acyl coA→CAT-chloramphenicol-CoA CAT-chloramphenicol-CoA+PMS→CAT+PMS.H2+acyl-chloramphenicol+HS-CoA PMS-H2+MTT→formazan+PMS.
as §1
Chloramphenicol acetyl transferase (5U/10 μl) was added to each substrate combination.

[10] = biological target: T1, elastase (EC 3.4.21.36) (Sus scrofa, UniProt P00772); experiment: Elastase with elastase substrate, with or without elastatinal (Example 5); assay type: biochemical
T1 construct: purchased Sigma lot # 17H8005
Protocol: as §2

[11] = system: cholesterol oxidase (EC1.1.3.6); experiment: Microtitre chromogenic detection of cholesterol oxidase (Example 8); assay type: biochemical; conditions: Cholesterol Oxidase 25 U/ml
Description: as §1

[12] = substrate 5 mg/ml + H2O, PMS (no MTT)
[13] = substrate 5 mg/ml + MTT, H2O (no PMS)
[14] = substrate 5 mg/ml alone (no MTT, no PMS)
[15] = substrate 12.5 mg/ml + H2O, PMS (no MTT)
[16] = substrate 12.5 mg/ml + MTT, H2O (no PMS)
[17] = substrate 12.5 mg/ml + MTT, PMS
[18] = substrate alone (no MTT, no PMS)

chloramphenicol acetyltransferase (EC 2.3.1.28), sequence (P62577 whole entry, looked up): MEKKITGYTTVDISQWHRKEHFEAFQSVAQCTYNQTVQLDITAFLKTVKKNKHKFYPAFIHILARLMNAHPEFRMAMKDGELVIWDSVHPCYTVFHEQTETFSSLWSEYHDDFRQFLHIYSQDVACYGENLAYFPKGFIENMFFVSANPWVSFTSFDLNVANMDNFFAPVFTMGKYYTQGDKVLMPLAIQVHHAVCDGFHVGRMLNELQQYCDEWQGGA
T1 sequence (P00772 27-266): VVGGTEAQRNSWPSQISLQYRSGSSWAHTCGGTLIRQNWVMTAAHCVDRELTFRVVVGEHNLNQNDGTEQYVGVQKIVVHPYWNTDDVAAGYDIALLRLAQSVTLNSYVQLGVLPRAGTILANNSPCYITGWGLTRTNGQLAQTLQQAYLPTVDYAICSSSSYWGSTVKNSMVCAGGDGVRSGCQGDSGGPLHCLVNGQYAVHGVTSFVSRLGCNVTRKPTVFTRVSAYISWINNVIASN

Molecule: 5-Bromo-4-chloro-3-indolyl 1,3 diacetate [BCI-1,3 diacetate]
- Substrate preference [1]: BCI-acetate>BCI-butyrate> BCI-1,3 diacetate
- Speed of chromogenic reactions relative to other BCI substrates [1]: much slower than the corresponding BCI-acetate and slower than the BCI-butyrate reactions
- Reaction (colour, time to detection) [1, 12]: yellow-blue
- Reaction (colour, time to detection) [1, 13]: dark blue (>1 hour)
- Reaction (colour, time to detection) ([1]; substrate 5 mg/ml + MTT, PMS): dark blue (>40 minutes)
- Reaction (colour, time to detection) [1, 14]: pale faint blue
- Substrate preference ([2]; cholesterol esterase): BCI-acetate>BCI-butyrate> BCI-1,3 diacetate

Molecule: 5-Bromo-4-chloro-3-indolyl-B-D-glucoside [BCI-glucoside]
- Reaction (colour, time to detection) [3, 12]: yellow-blue - slight change
- Reaction (colour, time to detection) [3, 13]: dark blue (<5 minutes)
- Reaction (colour, time to detection) ([3]; substrate 5 mg/ml + MTT, PMS): dark blue (<5 minutes)
- Reaction (colour, time to detection) [3, 14]: pale blue (>10 minutes)

Molecule: 5-Bromo-4-chloro-3-indolyl-B-D-glucuronide [BCI glucuronide]
- Reaction (colour, time to detection) ([4]; substrate 10 mg/ml + MTT, H2O (no PMS), 10 units glucuronidase): dark blue (<5 minutes)
- Reaction (colour, time to detection) ([4]; substrate + H2O (no MTT, no PMS), glucuronidase): pale blue (after 5 minutes)
- Reaction (colour, time to detection) ([4]; substrate + H2O, PMS (no MTT), 10 units glucuronidase): yellow-blue - slight change
- Reaction (colour, time to detection) ([4]; substrate + MTT, PMS, 10 units glucuronidase): dark blue (<5 minutes)

Molecule: CC(=O)Oc1c[nH]c2ccc(Br)c(Cl)c12 [BCI-acetate, 5-Bromo-4-chloro-3-indolyl acetate]
- Reaction (colour, time to detection) [5, 15]: yellow-blue - slight change
- Reaction (colour, time to detection) [5, 16]: dark blue < 10 seconds)
- Reaction (colour, time to detection) [5, 17]: dark blue (instantaneous)
- Substrate preference [1]: BCI-acetate>BCI-butyrate> BCI-1,3 diacetate
- Reaction (colour, time to detection) [1, 12]: yellow-blue (<30 sec)
- Reaction (colour, time to detection) [1, 13]: dark blue (<10 sec)
- Reaction (colour, time to detection) ([1]; substrate 5 mg/ml + MTT, PMS): dark blue (instant detection)
- Reaction (colour, time to detection) [1, 14]: pale blue (>10 minutes)
- Reaction with elastase preparation, no inhibitor ([6]; Elastase + H2O, MTT, PMS, BCI-acetate): dark blue (<5 minutes)
- Substrate preference ([2]; cholesterol esterase): BCI-acetate>BCI-butyrate> BCI-1,3 diacetate
- Reaction (colour, time to detection) ([2]; substrate + H2O, PMS (no MTT)): yellow-blue (<30 see)
- Reaction (colour, time to detection) ([2]; substrate + MTT, H2O (no PMS)): dark blue (<10 sec)
- Reaction (colour, time to detection) ([2]; substrate + MTT, PMS): dark blue (instant detection)
- Reaction (colour, time to detection) [2, 18]: pale blue (>10 minutes)

Molecule: CC(=O)N[C@H]1[C@H](Oc2c[nH]c3ccc(Br)c(Cl)c23)O[C@H](CO)[C@@H](O)[C@@H]1O [BCI-acetylglucosaminide]
- Reaction (colour, time to detection) [7, 15]: green
- Reaction (colour, time to detection) [7, 16]: light blue formazan reaction
- Reaction (colour, time to detection) [7, 17]: dark blue(<2 minutes)
- Reaction (colour, time to detection) ([7]; substrate 12.5 mg/ml alone (no MTT, no PMS)): light blue (>5 minutes)

Molecule: CC(=O)N[C@H]1[C@H]([C@H](O)[C@H](O)CO)O[C@@](Oc2c[nH]c3ccc(Br)c(Cl)c23)(C(=O)O)C[C@@H]1O [BCI-acetylneuraminic acid, 5-bromo-4-chloro-3-indolyl acetyl neuraminic acid]
- Reaction (colour, time to detection) ([8]; substrate + H2O, PMS (no MTT)): green
- Reaction (colour, time to detection) ([8]; substrate + MTT, H2O (no PMS)): light blue formazan reaction
- Reaction (colour, time to detection) ([8]; substrate + MTT, PMS): dark blue (>5 minutes)
- Reaction (colour, time to detection) ([8]; substrate in H2O (no MTT, no PMS)): pale blue (<2 minutes)

Molecule: CCCC(=O)Oc1c[nH]c2ccc(Br)c(Cl)c12 [BCI-butyrate, 5-Bromo-4-chloro-3-indolyl-butyrate]
- Substrate preference [1]: BCI-acetate>BCI-butyrate> BCI-1,3 diacetate
- Speed of chromogenic reactions relative to other BCI substrates [1]: much slower than the corresponding BCI-acetate reactions
- Reaction (colour, time to detection) [1, 12]: yellow-blue (<30 minutes)
- Reaction (colour, time to detection) [1, 13]: dark blue (<30 minutes)
- Reaction (colour, time to detection) ([1]; substrate 5 mg/ml + MTT, PMS): dark blue (<20 minutes)
- Reaction (colour, time to detection) [1, 14]: pale blue (>1 hour)
- Substrate preference ([2]; cholesterol esterase): BCI-acetate>BCI-butyrate> BCI-1,3 diacetate
- Speed of chromogenic reactions relative to other BCI substrates ([2]; cholesterol esterase, similar concentration of substrates and enzymes): much slower than the corresponding BCI-acetate reactions
- Reaction (colour, time to detection) ([2]; substrate + H2O, PMS (no MTT)): yellow-blue (<30 minutes)
- Reaction (colour, time to detection) ([2]; substrate + MTT, H2O (no PMS)): dark blue (<30 minutes)
- Reaction (colour, time to detection) ([2]; substrate + MTT, PMS): dark blue (<20 minutes)
- Reaction (colour, time to detection) [2, 18]: pale blue (>1 hour)

Molecule: O=C(N[C@H](CO)[C@H](O)c1ccc([N+](=O)[O-])cc1)C(Cl)Cl [Chloramphenicol]
- Reaction (colour, time to detection) ([9]; Acetyl CoA + H2O, PMS (no MTT)): orange - red (<2 minutes)
- Reaction (colour, time to detection) ([9]; Acetyl CoA + MTT, H2O (no PMS)): orange detection (>5 minutes)
- Reaction (colour, time to detection) ([9]; Acetyl CoA + MTT, PMS): yellow

Molecule: C[C@H](NC(=O)CCC(=O)O)C(=O)N[C@@H](C)C(=O)N[C@@H](C)C(=O)Nc1ccc([N+](=O)[O-])cc1 [Elastase substrate, N-succinyl-ALA-ALA-ALA p nitroanilide]
- Reaction with elastase, no inhibitor ([10]; Elastase + H2O, elastase substrate): yellow

Molecule: CC(C)C[C@H](NC(=O)N[C@H](C(=O)N[C@@H](CCC(N)=O)C(=O)N[C@@H](C)C=O)[C@@H]1CCNC(=N)N1)C(=O)O [Elastatinal]
- Reaction with elastase substrate after incubation with inhibitor ([10]; Elastase + Inhibitor, incubated 10 minutes, elastase substrate N-succinyl-ALA-ALA-ALA p nitroanilide): clear (no color >10 min.)
- Reaction with MTT, PMS, BCI-acetate after incubation with inhibitor ([6]; Elastase + Inhibitor, incubated 10 minutes): dark blue (<5 minutes)

Molecule: CC(C)CCC[C@@H](C)[C@H]1CC[C@H]2[C@@H]3CC=C4C[C@@H](O)CC[C@]4(C)[C@H]3CC[C@]12C [cholesterol]
- Reaction (colour, time to detection) ([11]; Cholesterol Std 50 mg/dl + H2O, PMS (no MTT)): yellow, no color change
- Reaction (colour, time to detection) ([11]; Cholesterol Std 50 mg/dl + MTT, H2O (no PMS)): yellow, no color change
- Reaction (colour, time to detection) ([11]; Cholesterol Std 50 mg/dl + MTT, PMS): dark blue(<1 minutes)
- Reaction (colour, time to detection) ([11]; Cholesterol Std 50 mg/dl in H2O (no MTT, no PMS)): clear, no color change
